Assay results published in ChEMBL document CHEMBL1201862, “PubChem BioAssay data set” (2004).
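1) Cells in 96-well plates. 2) Compound, 48 h, 5 concentrations. 3) Linear interpolation between surrounding doses. 4) Unreached endpoint = highest concentration. Here, GI50 denotes the concentration required for 50% inhibition of growth.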 The source made the active and inactive calls. Rule as the data show it: active = GI50 up to about 1.1 µM and inactive = higher.

Key:
Experiment in all cases: NCI tumour cell line growth inhibition, 48 h
HCC 2998 = system: HCC 2998
SF-539 = system: SF-539
SF-295 = system: SF-295
COLO 205 = system: COLO 205
SN12C = system: SN12C
TK-10 = system: TK-10
A549 = system: A549
UACC-257 = system: UACC-257
HL-60 = system: HL-60
OVCAR-5 = system: OVCAR-5
CCRF-CEM = system: CCRF-CEM
SK-MEL-2 = system: SK-MEL-2
NCI-H522 = system: NCI-H522
786-0 = system: 786-0
MOLT-4 = system: MOLT-4
HOP-92 = system: HOP-92

SMILES | GI50 (HCC 2998) | GI50 (SF-539) | GI50 (SF-295) | GI50 (COLO 205) | GI50 (SN12C) | GI50 (TK-10) | GI50 (A549) | GI50 (UACC-257) | GI50 (HL-60) | GI50 (OVCAR-5) | GI50 (CCRF-CEM) | GI50 (SK-MEL-2) | GI50 (NCI-H522) | GI50 (786-0) | GI50 (MOLT-4) | GI50 (HOP-92)
CC1(c2cccc3c2C2(O)C=CC4(CCC32)OCCO4)OCCO1 (centres undefined) | > 100 µM (inactive) | > 100 µM (inactive) | > 100 µM (inactive) | > 100 µM (inactive) | > 100 µM (inactive) | > 100 µM (inactive) | > 100 µM (inactive) | > 100 µM (inactive) | > 100 µM (inactive) | > 100 µM (inactive) | > 100 µM (inactive) | > 100 µM (inactive) | > 100 µM (inactive) | > 100 µM (inactive) | > 100 µM (inactive) | 
CCN(CC)C(=O)CCn1cc(F)c(=O)[nH]c1=O |  | > 100 µM (inactive) | > 100 µM (inactive) | > 100 µM (inactive) | > 100 µM (inactive) | > 100 µM (inactive) | > 100 µM (inactive) |  | > 100 µM (inactive) | > 100 µM (inactive) | > 100 µM (inactive) | > 100 µM (inactive) | > 100 µM (inactive) | > 100 µM (inactive) | > 100 µM (inactive) | 
O=C(CCc1cc(-c2ccc(F)cc2)n[nH]1)N(Cc1ccccc1)Cc1ccccc1 | > 100 µM (inactive) | > 100 µM (inactive) | > 100 µM (inactive) | > 100 µM (inactive) | > 100 µM (inactive) | > 100 µM (inactive) | > 100 µM (inactive) | > 100 µM (inactive) |  | > 100 µM (inactive) | > 100 µM (inactive) | > 100 µM (inactive) | > 100 µM (inactive) | > 100 µM (inactive) | > 100 µM (inactive) | > 100 µM (inactive)
COC(=O)C(=O)C(C(=O)C(=O)Nc1cc(Cl)c(Cl)cc1Cl)c1nc2ccc([N+](=O)[O-])cc2nc1O (centres undefined) | > 100 µM (inactive) | > 100 µM (inactive) | > 100 µM (inactive) | > 100 µM (inactive) | > 100 µM (inactive) | > 100 µM (inactive) | > 100 µM (inactive) | > 100 µM (inactive) |  | > 100 µM (inactive) | > 100 µM (inactive) | > 100 µM (inactive) | 46.9 µM (inactive) | > 100 µM (inactive) | > 100 µM (inactive) | 
CCOC(=O)C1N(S(=O)(=O)c2ccc(C)cc2)CCC12C(c1ccc(OC)c(OC)c1)=Nc1ccccc12 (centres undefined) | > 100 µM (inactive) | > 100 µM (inactive) | > 100 µM (inactive) | > 100 µM (inactive) | > 100 µM (inactive) | > 100 µM (inactive) | > 100 µM (inactive) | > 100 µM (inactive) | > 100 µM (inactive) | > 100 µM (inactive) | > 100 µM (inactive) |  | > 100 µM (inactive) | > 100 µM (inactive) |  | 28.5 µM (inactive)
CNC(=S)NC(=S)N(C)C | > 100 µM (inactive) | > 100 µM (inactive) | > 100 µM (inactive) |  | > 100 µM (inactive) | > 100 µM (inactive) | 7.67 µM (inactive) | > 100 µM (inactive) | 3.42 µM (inactive) |  |  |  | 0.678 µM (active) | > 100 µM (inactive) | 3.61 µM (inactive) | > 100 µM (inactive)
COc1ccc(C(=O)O)c(Cc2ccc3ccccc3c2)c1 |  | > 100 µM (inactive) | > 100 µM (inactive) | > 100 µM (inactive) | > 100 µM (inactive) | > 100 µM (inactive) | > 100 µM (inactive) | > 100 µM (inactive) | > 100 µM (inactive) | > 100 µM (inactive) | > 100 µM (inactive) | > 100 µM (inactive) | > 100 µM (inactive) | > 100 µM (inactive) | > 100 µM (inactive) | > 100 µM (inactive)
COC(=O)[C@]1(C)CCC[C@]2(C)C3CC4OOC3(C=C4C(C)(C)O)CCC21 (some centres undefined) |  | > 100 µM (inactive) | 95.9 µM (inactive) | 69.8 µM (inactive) | > 100 µM (inactive) | > 100 µM (inactive) | 38.4 µM (inactive) | 80.5 µM (inactive) | 14.3 µM (inactive) | > 100 µM (inactive) | 21.6 µM (inactive) | > 100 µM (inactive) | 20.2 µM (inactive) | 30.1 µM (inactive) | 22.2 µM (inactive) | 
N#CC(C(=N/NC(N)=S)/C(=N/NC(N)=S)C(C#N)c1ccc(Cl)cc1)c1ccc(Cl)cc1 (centres undefined) | > 100 µM (inactive) | > 100 µM (inactive) | > 100 µM (inactive) | > 100 µM (inactive) | > 100 µM (inactive) | > 100 µM (inactive) | > 100 µM (inactive) | > 100 µM (inactive) |  | > 100 µM (inactive) | 22.6 µM (inactive) | > 100 µM (inactive) | > 100 µM (inactive) | > 100 µM (inactive) | 22.7 µM (inactive) | > 100 µM (inactive)
O=c1c2cc(Br)ccc2nc(-c2ccccc2)n1NCC1(O)OCC(O)C(O)C1O (centres undefined) |  | > 100 µM (inactive) | > 100 µM (inactive) | > 100 µM (inactive) | > 100 µM (inactive) |  | > 100 µM (inactive) | > 100 µM (inactive) | 26.2 µM (inactive) | > 100 µM (inactive) | 40.2 µM (inactive) | > 100 µM (inactive) | > 100 µM (inactive) | > 100 µM (inactive) | 72.8 µM (inactive) | 
OCC(O)C(OC1OC(CO)C(O)C(O)C1O)c1nn(-c2ccccc2)c2nc3cc(Cl)c(Cl)cc3cc12 (centres undefined) | > 100 µM (inactive) | > 100 µM (inactive) | > 100 µM (inactive) |  | > 100 µM (inactive) | > 100 µM (inactive) |  | > 100 µM (inactive) |  | > 100 µM (inactive) | > 100 µM (inactive) |  | 63 µM (inactive) | > 100 µM (inactive) | > 100 µM (inactive) | 
COc1ccc(/C(=C\c2cc(OC)c(OC)c(OC)c2)C(=O)O)cc1 |  | 14.2 µM (inactive) | 19.9 µM (inactive) | 18.3 µM (inactive) | 37.9 µM (inactive) | 87.9 µM (inactive) | 40.1 µM (inactive) | 61 µM (inactive) | 21.3 µM (inactive) |  | 32.5 µM (inactive) |  | 21 µM (inactive) | 38 µM (inactive) | 27.5 µM (inactive) | 33.8 µM (inactive)
COc1cccc(N2C(=O)c3c(c4[nH]c5ccccc5c4c4ccc(C(C)(C)C)cc34)C2=O)c1 | > 100 µM (inactive) | > 100 µM (inactive) | > 100 µM (inactive) | > 100 µM (inactive) | > 100 µM (inactive) | > 100 µM (inactive) | > 100 µM (inactive) | > 100 µM (inactive) |  | > 100 µM (inactive) | > 100 µM (inactive) | > 100 µM (inactive) | > 100 µM (inactive) | > 100 µM (inactive) | 84.7 µM (inactive) | > 100 µM (inactive)
CCOC(=O)c1cc(=O)n(C)c(=O)n1C | > 100 µM (inactive) | > 100 µM (inactive) | > 100 µM (inactive) | > 100 µM (inactive) | > 100 µM (inactive) | > 100 µM (inactive) | > 100 µM (inactive) | > 100 µM (inactive) |  | > 100 µM (inactive) | > 100 µM (inactive) | > 100 µM (inactive) | > 100 µM (inactive) | > 100 µM (inactive) | > 100 µM (inactive) | > 100 µM (inactive)
